Here are results for 17 compounds from PubChem BioAssay (NCI).

Some test systems named below: SK-MEL-28 melanoma; M14 melanoma; A549 NSCLC; MDA-MB-435; LOX IMVI melanoma; DU-145 prostate; T-47D breast; HT29 colon; SNB-75 CNS.
Holding throughout (assay): NCI-60 cell line screen, 48 h

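Exposure lasted 48 hours, with cells grown in 96-well plates and compounds tested at five concentrations. GI50 is the concentration that inhibits growth by half. TGI denotes the concentration required for complete inhibition of growth.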

With `COCCOCCOC1=CC(=O)c2c(O)ccc(O)c2C1=O`, the TGI was determined as 2.92 µM in the test with SK-MEL-28 melanoma; 2.14 µM in the test on M14 melanoma; 3.38 µM with A549 NSCLC; 0.108 µM in the test with MDA-MB-435; 3.11 µM with LOX IMVI melanoma; 2.82 µM in the test on DU-145 prostate. In addition, the TGI in the test with T-47D breast is 3.48 µM; in the test on HT29 colon, 1.79 µM; in the test with SNB-75 CNS it was 3.28 µM.
For `Oc1[nH]c2ccccc2c1N=NC(=S)Nc1ccc(Cl)cc1`, the TGI with SK-MEL-28 melanoma was above 100 µM; in the test on M14 melanoma, 45.2 µM; with A549 NSCLC it was above 100 µM; in the test on MDA-MB-435, above 100 µM; in the test with LOX IMVI melanoma, above 100 µM; in the test on DU-145 prostate, above 100 µM. Also, the TGI in the test with T-47D breast, in the test with HT29 colon and with SNB-75 CNS was above 100 µM each time.
With `O=c1[nH]c(Nc2cccc(CO)c2)nc2nc[nH]c12`, the TGI with SK-MEL-28 melanoma, in the test on M14 melanoma, in the test on A549 NSCLC, in the test on MDA-MB-435, in the test with LOX IMVI melanoma and with DU-145 prostate was above 100 µM throughout. The TGI with T-47D breast, in the test with HT29 colon and with SNB-75 CNS was above 100 µM in each case.
As to `COc1ccc(CC2COc3cc(O)cc(O)c3C2=O)cc1O` (configuration not stated), the TGI in the test on SK-MEL-28 melanoma is above 100 µM; in the test with M14 melanoma, above 100 µM; in the test with A549 NSCLC, above 100 µM; in the test on MDA-MB-435, 3.68 µM; with LOX IMVI melanoma, above 100 µM; with DU-145 prostate, 68.1 µM. In addition, the TGI with T-47D breast is above 100 µM; in the test on HT29 colon it was 27.5 µM; in the test with SNB-75 CNS, 6.98 µM.
Consider `NC(=O)N/N=C1\CC2C3CC4C2C4C13` (configuration not stated), for which the TGI with SK-MEL-28 melanoma, in the test with M14 melanoma, in the test with A549 NSCLC, in the test with MDA-MB-435, with LOX IMVI melanoma and in the test with DU-145 prostate was above 100 µM throughout. Besides, the TGI in the test on T-47D breast, in the test with HT29 colon and in the test with SNB-75 CNS was above 100 µM in each case.
Regarding `O=C(Nc1noc(-c2ccccc2)n1)c1ccccc1CNc1noc(-c2ccccc2)n1`, the TGI in the test with SK-MEL-28 melanoma, in the test on M14 melanoma, with A549 NSCLC, in the test on MDA-MB-435, with LOX IMVI melanoma and in the test with DU-145 prostate was above 100 µM each time. The TGI in the test with T-47D breast, with HT29 colon and with SNB-75 CNS was above 100 µM in each case.
`C#CCN(Cc1ccc2nc(OC)c(OC)nc2c1)c1cc(OC)c(OC)c(OC)c1`: the TGI is above 100 µM with SK-MEL-28 melanoma; 71.2 µM with M14 melanoma; above 89.6 µM with A549 NSCLC; 74.7 µM in the test with MDA-MB-435; above 48.9 µM in the test on LOX IMVI melanoma; above 74.5 µM with DU-145 prostate. Moreover, the TGI in the test with T-47D breast was above 100 µM; in the test on HT29 colon, 72 µM; with SNB-75 CNS, above 100 µM.
Regarding `CCCCn1c(-c2ccc([N+](=O)[O-])cc2)cs/c1=N/N=C1\C(=O)Nc2ccc(Br)cc21`, the TGI in the test with SK-MEL-28 melanoma was above 100 µM; in the test with M14 melanoma it was 27.1 µM; in the test with A549 NSCLC, 85.8 µM; with MDA-MB-435, 37.3 µM; with LOX IMVI melanoma, 39 µM; with DU-145 prostate it was 30 µM. Moreover, the TGI was 35.1 µM in the test on T-47D breast, 33.1 µM in the test with HT29 colon and 59.8 µM in the test on SNB-75 CNS.
In the case of `O=c1[nH]nc(Cc2ccccc2)n1/N=C/c1ccncc1`, the TGI in the test with SK-MEL-28 melanoma, in the test with M14 melanoma, in the test on A549 NSCLC, in the test on MDA-MB-435, in the test on LOX IMVI melanoma and with DU-145 prostate was above 100 µM in each case. The TGI with T-47D breast, in the test with HT29 colon and in the test with SNB-75 CNS was above 100 µM throughout.
As to `OCc1ccc2c(c1)CC1(Cc3ccc(/C=N/O)cc3C1)C2` (configuration not stated), the TGI in the test on SK-MEL-28 melanoma was above 100 µM; in the test on M14 melanoma it was 21.6 µM; with A549 NSCLC, above 100 µM; with MDA-MB-435, 1.51 µM; in the test with LOX IMVI melanoma it was above 100 µM; in the test with DU-145 prostate it was above 100 µM. Further, the values for the TGI in the test on T-47D breast, in the test on HT29 colon and with SNB-75 CNS were above 100 µM, 11.4 µM and above 25.5 µM, respectively.
In the case of `COc1ccc(CN2C3CC2CN(c2ccc(-c4cc(OCC(C)(C)O)cn5ncc(C#N)c45)cn2)C3)cn1`, the GI50 in the test on SK-MEL-28 melanoma is above 100 µM; in the test with M14 melanoma, 24.2 µM; with A549 NSCLC, 6.27 µM; in the test on MDA-MB-435 it was above 100 µM; in the test with LOX IMVI melanoma it was 15.1 µM; with DU-145 prostate, 26.2 µM. Also, the GI50 in the test on T-47D breast is 9.02 µM; with HT29 colon it was 8.09 µM; with SNB-75 CNS it was 1.32 µM. The TGI in the test on SK-MEL-28 melanoma, in the test with M14 melanoma, in the test with A549 NSCLC, in the test with MDA-MB-435, with LOX IMVI melanoma and with DU-145 prostate was above 100 µM in each case. Also, the TGI in the test on T-47D breast was above 100 µM; with HT29 colon it was above 100 µM; with SNB-75 CNS, 4.81 µM.
Consider `N#Cc1c(-c2ccccc2)cc(-c2ccc(Cl)cc2)[nH]c1=S`, for which the TGI in the test with SK-MEL-28 melanoma is 80.1 µM; with M14 melanoma, above 100 µM; with A549 NSCLC it was above 100 µM; in the test on MDA-MB-435, 43.1 µM; in the test on LOX IMVI melanoma it was above 100 µM; in the test with DU-145 prostate it was above 100 µM. Also, the TGI in the test on T-47D breast, in the test with HT29 colon and in the test on SNB-75 CNS was above 100 µM each time.
Consider `COC(=O)C1(Cc2ccc3c(c2)CCC3)Cc2ccccc2C1`, for which the TGI in the test with SK-MEL-28 melanoma, in the test on M14 melanoma, with A549 NSCLC, in the test on MDA-MB-435, in the test on LOX IMVI melanoma and in the test on DU-145 prostate was above 100 µM throughout. Besides, the TGI is above 100 µM in the test on T-47D breast, 65 µM in the test with HT29 colon and above 100 µM with SNB-75 CNS.
On to `CC12CCCC3(CC(=O)C(C)(C)C3C(=O)C1)C2` (configuration not stated), for which the TGI in the test on SK-MEL-28 melanoma, in the test with M14 melanoma, in the test on A549 NSCLC, in the test with MDA-MB-435, in the test on LOX IMVI melanoma and in the test with DU-145 prostate was above 100 µM each time. For the same compound, the TGI in the test on T-47D breast, in the test on HT29 colon and in the test on SNB-75 CNS was above 100 µM throughout.
For `CC(C(=O)O)C(C)(O)C(=O)O` (configuration not stated), the TGI in the test on SK-MEL-28 melanoma, in the test with M14 melanoma, with A549 NSCLC, in the test with MDA-MB-435, in the test with LOX IMVI melanoma and in the test on DU-145 prostate was above 100 µM in each case. In addition, the TGI with T-47D breast, with HT29 colon and in the test with SNB-75 CNS was above 100 µM in each case.
For `COC1CC(OC2CCC3(C)C(=CCC4C3C(OC(C)=O)C(OC(=O)CC(C)C)C3(C)C(C(C)=O)CCC43O)C2)OC(C)C1OC1CC(OC)C(OC2CC(OC)C(OC3OC(C)C(OC4OC(CO)C(O)C(O)C4O)C(OC)C3O)C(C)O2)C(C)O1` (configuration not stated), the TGI with SK-MEL-28 melanoma, in the test on M14 melanoma, with A549 NSCLC, with MDA-MB-435, with LOX IMVI melanoma and with DU-145 prostate was above 75 µM in each case. Moreover, the TGI in the test on T-47D breast, in the test with HT29 colon and with SNB-75 CNS was above 75 µM each time.
With `Cn1c2ccccc2c(=O)c2c(O)cc3c(c21)C=CC1(CCCCC1)O3`, the TGI in the test with SK-MEL-28 melanoma, with M14 melanoma, in the test on A549 NSCLC, in the test with MDA-MB-435, with LOX IMVI melanoma and with DU-145 prostate was above 10 µM throughout. Also, the TGI in the test with T-47D breast, with HT29 colon and with SNB-75 CNS was above 10 µM each time.
